Data from patent EP4644377A1, “LIPID COMPOUND FOR GENE DELIVERY AND LIPID NANOPARTICLE COMPRISING SAME” (NANJING CYBERNAX BIOMEDICAL TECHNOLOGY CO., LTD., priority 2022, dated 2024).

Legend:
A549 cells = test: In vitro delivery of luciferase mRNA by LNPs, A549 cells; assay type: cell-based, human; settings: 100 ng luciferase mRNA per well, 24 h; ratio to naked mRNA control; result in words
Experimental: (§1) Human embryonic kidney cells (293T cells) and human non-small cell lung cancer cell lines (A549 cells) were obtained from the Chinese Type Culture Collection Center and cultured in DMEM high glucose culture medium containing 10% fetal bovine serum under the environment of 37°C and 5% CO2. The cells were inoculated in a 96-well cell culture plate in a density of 32,000 cells per well. LNPs coating mRNA expressing luciferase (Trilink, USA) were taken and added into the wells at a dose of 100 ng of mRNA per well. Meanwhile, control wells were set on each culture plate, and 100 ng of naked mRNA that was not coated by LNPs was added into each well. The cell culture plate was placed in a cell incubator for 24 h of co-culture under the conditions of 37°C and 5% CO2, and then the transfection effect of mRNA was detected through a One-LumiTM firefly luciferase reporter gene detection kit. The transfection results of LNPs in 293T cells are shown in FIG. 1 to FIG. 6 and FIG. 13 (upper), and the transfection results of LNPs in A549 cells are shown in FIG. 7 to FIG. 12 and FIG. 13 (lower). The transfection efficiency is expressed as a ratio of chemiluminescent intensity of LNP group to chemiluminescent intensity of control group (direct delivery of naked luciferase mRNA that is not coated by LNP).

C57Bl/6 mice = test: Luciferase mRNA delivery in mice, IVIS chemiluminescence; assay type: in vivo
Experimental: The animal experiments were reviewed and approved by the Ethics Committee of Zhejiang Medical College and the Ethics Committee of Zhejiang University of Technology. 6- to 8-week-old male C57Bl/6 mice were randomly grouped with 3 mice in each group. The mice in each group received a lipid nanoparticle coating mRNA expressing a luciferase via tail vein injection at a dose of 0.25 mg/kg mouse body weight (calculated by the mass of coated mRNA). […] The mRNA delivery effect of the lipid nanoparticle is quantitatively compared through a total chemiluminiscence quantity (Total Flux p/s) of a mouse whole body within unit time (shown in Table 5).
Table 13 and Table 14 show whole body chemiluminescent signals when LNPs (formulation 2) composed of the lipids in some examples deliver Flue mRNA in mice. The delivery dose of Flue mRNA was 0.25 mg/kg. 6 h after LNP injection, 150 mg/kg of D-luciferin was intraperitoneally injected into the mice, and then the whole body chemiluminescent signals were collected in the IVIS imaging system after 10 min. […]

293T cells [1] = test: In vitro delivery of luciferase mRNA by LNPs, 293T cells; assay type: cell-based, Human; settings: 100 ng luciferase mRNA per well, 24 h; ratio to naked mRNA control; result in words
Experimental: as §1

[2] = tested on: enhanced green fluorescent protein (EGFP) gene; test: LNP delivery of gene editing system (spCas9 mRNA + sgGFP), GFP knockout by flow cytometry; assay type: cell-based; settings: HEK 293/eGFP-aavs1 cells, 200 ng total RNA per well, 48 h, average
Experimental: LNPs were prepared by using a composition ratio in formulation 2 and simultaneously coating spCas9 mRNA and sgRNA (sgGFP sequence: […]) with lipid 284, wherein N/P was 6, and a mass ratio of mRNA to sgRNA was 3/1. By DLS detection, the particle size of LNP was about 130 nm, PDI was 0.15, and the RNA encapsulation efficiency was greater than 95%. An HEK 293/eGFP-aavs1 stable cell line stably expressing a green fluorescence protein (GFP) was inoculated into a 96-well cell culture plate at a density of 40,000 cells per well. After incubation for 24 h, LNPs containing 200 ng of total RNA were added into each well, cells were collected after 48 h and the knockout efficiency cells of GFP were detected on a flow cytometer.

293T cells [3] = test: In vitro eGFP plasmid DNA transfection; assay type: cell-based; settings: 100 ng plasmid DNA per well, 48 h, fluorescence microscope, versus lipofectamine 3000
Experimental: 293T cells were inoculated into a 96-well cell culture plate at a density of 40,000 cells per well, LNPs prepared from lipid 284 and lipid 424 was used to coat plasmid DNA expressing eGFP, lipofectamine 3000 was used as a control group, 100 ng of plasmid DNA coated by the above vehicle was given to cells per well, the expression of eGFP was observed through a fluorescence microscope after co-culture for 48 h.

[4] = Particle size detection of LNP (Brookhaven NanoBrook Omni, DLS); assay type: physicochemical
Experimental: Step 1. Preparation of a lipid solution and a nucleic acid solution: unless otherwise specified, all aqueous solutions involved in examples were prepared from deionized water without nucleases. An ionizable lipid, a phospholipid (disaturated phosphatidylcholine (DSPC) or dioleoylphosphatidylethanolamine (DOPE)), cholesterol and a PEG lipid (DMG-PEG2000) were mixed in a molar ratio of 50/10/38.5/1.5 (containing DSPC, formulation 1) or 36.5/16/46.5/2.5 (containing DOPE, formulation 2) and dissolved into an ethanol solution. Meanwhile, a nucleic acid (a mass ratio of ionizable lipid/nucleic acid was 10/1) was dissolved into a citrate buffer solution of pH=3, so that a final volume ratio of the ethanol solution to the citrate solution was 1/3.
Step 2. Preparation of LNP by mixing the lipid solution with the nucleic acid solution: the lipid ethanol solution and the nucleic acid aqueous solution that were prepared in Step 1 were respectively put into a sterile syringe and placed in a Precision Nanosystem Ignite instrument, the extrusion flow speeds of the ethanol solution and the water phase solution were respectively set as 3 ml/min and 9 ml/min in instrument program settings. A microfluidic chip was inserted into the instrument and LNP preparation was initiated, and then a solution mixed by the chip was collected.
Step 2.1. Preparation of an LNP solution coating nucleic acid in a porous plate: a solution of an ionizable lipid, a phospholipid (DSPC or DOPE), cholesterol and a PEG lipid (DMG-PEG2000) in ethanol was added into each well of a 96-well deep plate, so that a molar ratio of four component lipids in each well was 50/10/38.5/1.5 (containing DSPC, formulation 1) or 36.5/16/46.5/2.5 (containing DOPE, formulation 2). Then, a citrate buffer solution (pH=3, the mass of nucleic acid added into each well was 1/10 that of the ionizable lipid in this well) that was three times as ethanol in volume and dissolved with a nucleic acid molecule was quickly added into the well plate through a multi-channel pipette or an automatic liquid dispensing system and rapidly mixed, so as to obtain the LNP solution coating nucleic acid.
Step 3. Purification of the LNP solution: the LNP solution collected in Step 2 or Step 2.1 was subjected to dialysis-concentration-filtration operations, so as to obtain a final LNP solution coating nucleic acid for subsequent testing.
The LNP solution coating nucleic acid obtained in Step 3 was diluted so that the final lipid concentration was between 0.01 mg/ml and 0.1 mg/ml. The diluted solution was added into a sample reservoir, and then subjected to particle size detection in a Brookhaven NanoBrook Omni instrument.

[5] = Determination of total nucleic acid and encapsulation efficiency (Quant-iT RiboGreen RNA kit); assay type: physicochemical
Experimental: The content of nucleic acids in an LNP sample was determined through a Quant-iT™ RiboGreen® RNA detection kit (Thermofisher). The detection of total RNA concentration: 5 µl of to-be-detected sample was placed into 2 ml of ep tube, 245 µl of 1xTE Buffer was added, and the above materials were evenly mixed to obtain a "diluted sample". 100 µl of the above "diluted sample" was taken, 100 µl of 10% TritonX-100 solution was added, the above materials were sufficiently and evenly mixed, and then the obtained mixture was demulsified for 15 min in metal bath under the conditions of 37°C and 300 rpm; and 80 µl of 1xTE Buffer was added into an ELISA plate, 20 µl of demulsified sample was taken and added into the ELISA plate to be evenly mixed, and then 100 µl of fluorescence dye (2000-fold dilution) solution was added.
Detection of free RNA concentration: 90 µl of 1xTE Buffer was added into the ELISA plate, 10 µl of the above "diluted sample" was taken, and 100 µl of fluorescence dye (2000-fold dilution) solution was added.
Meanwhile, a series of standard solutions having different concentrations were set in the ELISA plate as quantitative standard curves. The samples were loaded onto the ELISA plate to detect fluorescence signals (with an excitation wavelength of 480 nm and an emission detection wavelength of 520). A corresponding RNA concentration was obtained after the fluorescence signal in each well was converted via the standard curve.
Calculation method of encapsulation efficiency: EE(%) = (Concentration of total mRNA−concentration of free mRNA)/(Concentration of total mRNA)∗100% [formula]

[6] = LNP formulation 2 (SM102: formulation 1), luciferase mRNA 0.25 mg/kg, tail vein, C57Bl/6 mice, whole body signal 6 h after LNP, 10 min after D-luciferin 150 mg/kg i.p.
[7] = formulation 2, spCas9 mRNA and sgRNA 3/1, N/P 6, DLS
[8] = LNPs (formulation 2), Flue mRNA 0.25 mg/kg, tail vein injection, whole body signal 6 h after LNP injection, 10 min after 150 mg/kg D-luciferin i.p.
[9] = LNPs after coating mRNA (luciferase)
[10] = LNP with RSV-mRNA, lipid ratio of formulation 1, N/P 6

Row | SMILES | Chemiluminescent signal (p/s) (C57Bl/6 mice; [6]) | Chemiluminescent signal (p/s) (C57Bl/6 mice; [8]) | PDI [4, 9] | Particle size [4, 9] [nm·days] | other results
1 | CC/C=C\C/C=C\C/C=C\C/C=C\C/C=C\CCCC(=O)N(CCCN(C)C)C(C(=O)NCCCCCCCCCCCCCC)C(C)(C)C (stereo not shown) [Lipid 157] | 4.26E+09 |  |  |  | transfection (delivery) efficiency of LNP in A549 cells (A549 cells): relatively high delivery efficiency; transfection (delivery) efficiency of LNP in 293T cells (293T cells [1]): relatively high delivery efficiency
2 | CCCCCCCCCCCCCC(=O)N(CCCN(C)C)C(C(=O)NCCCCCCOC(=O)C(CCCCCC)CCCCCCCC)C(C)(C)C (stereo not shown) [Lipid 284] | 2.42E+10 |  |  |  | cells with significant knockdown of GFP expression [2]: 41.2%; eGFP expression (delivery efficiency and positive cell ratio) (293T cells [3]): delivery efficiencies and positive cell ratios exceed those in control group lipofectamine3000; PDI [4, 7]: 0.15; particle size of LNP [4, 7]: about 130 nm; RNA encapsulation efficiency ([5]; formulation 2, spCas9 mRNA and sgRNA 3/1, N/P 6): greater than 95%
3 | CCCCCCCCC(CCCCCCCC)OC(=O)CCCCCCCNC(=O)C(N(CCCN(C)C)C(=O)CCCCCCC(=O)OCC(C)CCCCCCC)C(C)(C)C (stereo not shown) [Lipid 420] |  | 6.69E+09 p/s | 0.22 | 110.3 ± 1.65 | 
4 | CCCCCCCCC(CCCCCC)C(=O)OCCCCCCNC(=O)C(N(CCCN(C)C)C(=O)CCCCCCC(=O)OCC(C)CCCCCCC)C(C)(C)C (stereo not shown) [Lipid 424] |  | 8.40E+ 10 p/s | 0.11 | 153 ± 2.11 | eGFP expression (delivery efficiency and positive cell ratio) (293T cells [3]): delivery efficiencies and positive cell ratios exceed those in control group lipofectamine3000
5 | CCCCCCCCC(CCCCCC)COC(=O)CCCCCCC(=O)N(CCCN(C)C)C(C(=O)NCCCCCCCC(=O)OC(CC)CCCCCCCC)C(C)(C)C (stereo not shown) [Lipid 431] |  | 5.11E+10 p/s | 0.26 | 114 ± 2.51 | 
6 | CCCCCCCCC(CCCCCC)C(=O)OCCCCCCC(=O)N(CCCN(C)C)C(C(=O)NCCCCCCCC(=O)OCC(C)CCCCCCC)C(C)(C)C (stereo not shown) [Lipid 445] |  | 2.15E+09 p/s | 0.24 | 94.7 ± 0.95 | 
7 | CCCCC/C=C\C/C=C\CCCCCCCC(=O)N(CCCN(C)C)C(C(=O)NCCCCCCCC(=O)OC(CCCCCCCC)CCCCCCCC)C(C)C (stereo not shown) [Lipid 942] |  | 8.15E+08 p/s | 0.25 | 135.8 ± 2.13 | 
8 | CCCCC/C=C\C/C=C\CCCCCCCC(=O)N(CCCN(C)C)C(C)C(=O)NCCCCCCCC(=O)OC(CCCCCCCC)CCCCCCCC (stereo not shown) [Lipid 949] |  | 6.88E+05 p/s | 0.19 | 115.8 ± 0.26 | 
9 | CCCCCCCCCCCOC(=O)CCCCCN(CCO)CCCCCCCC(=O)OC(CCCCCCCC)CCCCCCCC [SM102, heptadec-9-yl-8-((2-hydroxyethyl) (6-oxo-6-((undecyloxy)hexyl)amino) octanoate, reference compound] | 3.93E+09 |  |  |  | Particle size [4, 10]: 96.1 nm; encapsulation efficiency [5, 10]: 97.9%
